Entries after “also recorded” stand apart in the source; their conditions may differ. Read-outs that look alike come from different tables or passages of the source.
How the values were obtained:
[1] = test system: 143B human osteosarcoma cells; assay: Cell counts of drug combination administration (Trypan Blue), cell viability; settings: 143B cells
Protocol: (§1) (1) Cells were plated in a 10 cm culture plate to grow a density of about 90%. The medium was removed, and the adherent cells were washed once with a PBS buffer. 1 mL of trypsin was added, and immediately discarded after mixing well. The cells were placed in the incubator and digested for about 5 min, and then about 10 ml of fresh medium was added. 10 μL was taken for counting.
(§2) (2) 10 μL of the well-mixed cells were taken and mixed into 10 μL of Trypan Blue solution, and counted.
(§3) (3) After counting, the cells were diluted to 1×10^5 cells/ml. The diluted cells were mixed well, and plated into a 24-well plate with 500 μL per well, i.e., about 50,000 cells per well.
(§4) (4) The cells plated in the 24-well plate were cultured for about 24h, and then drugs were added. […]
(§5) (5) After 24h of dosing, the medium was discarded. About 150 μL of trypsin was added and then discarded. The cells were digested for 5 min;
(§6) (6) After digestion, equivalent amounts of PBS were added into each well and mixed uniformly. Then, 10 μL/well of Trypan Blue solution was added and mixed uniformly. 10 μL of the well-mixed solution was taken and counted. In accordance with “Cell viability=Cell Count of Test Group/Cell Count of Control Group×100%”, the cell viability of various groups was calculated.
(§7) The coefficient of drug in interaction (CDI) was used to evaluate the nature of the interaction between the two drugs. The test groups were divided into the control group, the group of A drug, the group of B drug and the group of AB in combination, and used for detecting the cell viability in A, B and AB groups, respectively.

[2] = test system: HOS human osteosarcoma cells; assay: as above
Protocol: as §1, §2, §3, §4, §5, §6, §7

HEK293 cells = assay: Cell viability compared with HEK293 cells (specificity); assay type: cell-based; settings: in combination with ascorbic acid
Protocol: HEK293 cells, HOS human osteosarcoma cells, and 143B human osteosarcoma cells were subcultured in an incubator at 37° C., 5% CO2 using a RPMI-1640 medium containing 10% fetal bovine serum (FBS).
(§8) 10 μL was taken for counting.
(5) After 24h of dosing, the medium was discarded. […] The cells were digested for 5 min;

[3] = test system: 143B human osteosarcoma cells; assay: Migration of osteosarcoma cells (scratch lines, photographs at 12h and 24h); assay type: cell-based; settings: 143B cells, 0.1 μM PKF118-310 in combination with 0.5 mM Vc
Protocol: (§9) (1) HOS human osteosarcoma cells and 143B human osteosarcoma cells were subcultured at 37° C., 5% CO2 in an incubator with a RPMI-1640 medium containing 10% fetal bovine serum.
as §8
(§10) The diluted cells were plated into a 12-well plate with 1 mL per well, i.e., about 100,000 cells per well.
(§11) (4) The cells plated in the 12-well plate were cultured to a density of more than 80%. Then, a control group (to which DMSO was added), as well as groups to which 0.1 μM of PKF118-310, 0.5 mM Vc, and a combination of 0.1 μM of PKF118-310 with 0.5 mM sodium ascorbate were respectively added were prepared. Parallel lines were drawn with the tip of a 10 μL pipette at the bottom of the plate.
(§12) (5) The cells were placed into a 37° C., 5% CO2 incubator for incubation, and observed and recorded by photographs at 12h and 24h.

[4] = test system: HOS human osteosarcoma cells; assay: as above; assay type: cell-based; settings: 0.1 μM PKF118-310 in combination with 0.5 mM Vc
Protocol: as §9, §8, §10, §11, §12

143B cells = assay: Osteosarcoma tumor model in nude mice (tumor volume, Luciferin fluorescence imaging); assay type: in vivo, nude mice (BALB/c-nu)
Protocol: (1) Tumor preparation in nude mice. 6-8-week-old female nude mice (BALB/c-nu) (purchased from Vital River Laboratory Animal Technology Co., Ltd.) were selected. 143B cells were cultured in vitro to the log phase. The cells were collected and re-suspended in a PBS buffer solution. The collected cells were subcutaneously injected to the mammary glands of nude mice with 5×10^6 143B cells/nude mouse to establish a model of tumor in situ.

[5] = test system: 3AO human ovarian cancer cells; assay: cells; settings: 3AO cells
Protocol: as §1, §2, §3
(§13) (4) The cells plated in the 24-well plate were cultured for about 24h, and then drugs were added. Various test groups comprise 5 groups as follows: the single-drug group of PKF118-310 (with a concentration of 0.1 μM), the group of ascorbic acid (with a concentration of 0.5 mM), the group of PKF118-310 (with a concentration of 0.1 μM) in combination with ascorbic acid (with a concentration of 0.5 mM); the control group that is a cell group to which only solvent DMSO is added; and the blank group that is a group to which no cell is added and only solvent (DMSO) is added.
as §5, §6
(§14) The inhibitory effect of PKF118-310 on the SKOV3 human ovarian cancer cells and the 3AO human ovarian cancer cells was detected in accordance with the corresponding method of Example 1.

[6] = test system: SKOV3 human ovarian cancer cells; assay: cells; settings: SKOV3 cells
Protocol: as §1, §2, §3, §13, §5, §6, §14

[7] = test system: HCT116 human colon cancer cells; assay: cells; settings: HCT116 cells
Protocol: as §1, §2, §3, §13, §5, §6
The inhibitory effect of PKF118-310 on the MC38 human colon cancer cells and the HCT116 human […] cancer cells was detected in accordance with the corresponding method of Example 1.

[8] = 0.1 μM in combination with 0.5 mM sodium ascorbate
[9] = 0.3 μM in combination with 0.5 mM sodium ascorbate
[10] = 0.5 μM in combination with 0.5 mM sodium ascorbate

Cn1ncnc2c(=O)n(C)c(=O)nc1-2 [PKF118-310]
CDI value [1, 8]: 0.04
cell viability [1, 8]: 2%
cell viability ([1]; single-drug 0.1 μM, 24h): 91%
CDI value (coefficient of drug interaction) [2, 8]: 0.12
cell viability [2, 8]: 10%
cell viability ([2]; single-drug 0.1 μM, 24h): 94%
specificity of inhibition of tumor cell viability as compared with the HEK293 cells (HEK293 cells): can specifically inhibit the cell viability of the 143B cells and the HOS cells; also recorded: can specifically inhibit the activity of the HCT116 cells and the MC38 cells
migration of cells [3]: significantly inhibit the migration
migration of cells [4]: significantly inhibit the migration
tumor growth, tumor volume with time (143B cells; 0.7 mg/kg PKF118-310 s.c. + 1 g/kg ascorbic acid i.v. every 3 days, 6 times, vs blank control and single-drug groups (P<0.001)): significantly inhibits the tumor growth
tumor volume on Day 21 (143B cells; 0.7 mg/kg PKF118-310 s.c. + 1 g/kg ascorbic acid i.v., compared with blank control, PKF118-310 and sodium ascorbate groups): substantially smaller
tumor growth, Luciferin fluorescence imaging (143B cells; Day 21, 0.7 mg/kg PKF118-310 s.c. + 1 g/kg ascorbic acid i.v. every 3 days, 6 times, vs blank control and single-drug groups): significantly inhibits the tumor growth
CDI value [5, 8]: 0.35
cell viability [5, 8]: 31%
CDI value [5, 9]: 0.19
cell viability [5, 9]: 13%
cell viability ([5]; 0.05 M in combination with 0.5 mM sodium ascorbate): 58%
CDI value ([5]; in combination with 0.5 mM sodium ascorbate): 0.60
cell viability ([5]; single-drug 0.1 μM): 92%
cell viability ([5]; single-drug 0.3 μM): 69%
cell viability ([5]; single-drug 0.05 M): 101%
CDI value [6, 9]: 0.31
cell viability [6, 9]: 28%
CDI value [6, 10]: 0.34
cell viability [6, 10]: 20%
cell viability ([6]; single-drug 0.3 μM): 94%
cell viability ([6]; single-drug 0.5 μM): 61%
CDI value [7, 9]: 0.24
cell viability [7, 9]: 22%
cell viability ([7]; single-drug 0.3 μM): 92%
effect on the body weight of mice (PKF118-310 0.7 mg/kg s.c. in combination with ascorbate 1 g/kg i.v. every 3 days): no effect on the body weight of mice
effect on the body weight of mice (alone, PKF118-310 0.7 mg/kg s.c. or ascorbate 1 g/kg i.v. every 3 days): no effect on the body weight of mice

— patent US20230181524A1, “PHARMACEUTICAL COMBINATION AND USE THEREOF” (NATURAL MEDICINE INSTITUTE OF ZHEJIANG YANGSHENGTANG CO., …, priority 2020, published 2023)
